Drawing on patent US8293781B2, “Indole derivatives having cPLA2 inhibiting activity and applications and production methods of the same” (Daiichi Sankyo Company, Limited, priority 2007, dated 2012), this text covers IC50 for 32 molecules.

For this assay, the target named is T1, cPLA2 crudely purified from the cytoplasm fraction of U937 (Homo sapiens, UniProt P47712).
T1 construct: cPLA2 crudely purified from the cytoplasm fraction of U937; endogenous in cells; host or cells: U937 cells (cytoplasm fraction, crude purification)
T1 sequence (P47712 1-749): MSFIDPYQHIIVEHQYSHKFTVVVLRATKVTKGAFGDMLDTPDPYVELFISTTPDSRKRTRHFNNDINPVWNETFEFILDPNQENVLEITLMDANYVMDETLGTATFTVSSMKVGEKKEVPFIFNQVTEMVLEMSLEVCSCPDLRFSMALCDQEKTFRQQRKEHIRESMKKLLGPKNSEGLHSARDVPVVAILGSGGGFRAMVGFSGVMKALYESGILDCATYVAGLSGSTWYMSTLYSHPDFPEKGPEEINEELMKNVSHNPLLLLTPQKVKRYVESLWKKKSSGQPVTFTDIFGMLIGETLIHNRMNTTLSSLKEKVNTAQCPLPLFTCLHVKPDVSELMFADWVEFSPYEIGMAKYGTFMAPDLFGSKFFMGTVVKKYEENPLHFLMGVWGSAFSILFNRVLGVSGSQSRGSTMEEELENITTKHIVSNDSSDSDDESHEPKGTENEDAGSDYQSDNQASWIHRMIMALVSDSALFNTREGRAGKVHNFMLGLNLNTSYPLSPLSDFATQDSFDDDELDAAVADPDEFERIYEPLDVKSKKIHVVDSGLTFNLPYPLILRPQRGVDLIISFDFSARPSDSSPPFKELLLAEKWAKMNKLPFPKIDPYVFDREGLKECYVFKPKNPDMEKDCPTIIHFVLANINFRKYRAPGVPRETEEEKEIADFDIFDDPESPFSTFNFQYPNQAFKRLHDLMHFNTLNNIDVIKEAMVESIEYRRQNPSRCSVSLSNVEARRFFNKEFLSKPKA
Briefly: Measurement of cPLA2 inhibitory activity (release of [14C]-arachidonic acid from phosphatidyl choline liposome). The format is biochemical. On the procedure: The cPLA2 inhibitory activity was measured based on the method described in the document [See H. Naraba et al., J. Immunol. 160, 2974-2982 (1998)] and modified in the following way.
A DMSO solution of the present invitation compounds was diluted to 2.5 times the final concentration with the assay buffer (4 mM CaCl2, 2 mM dithiothreitol, 150 mM NaCl, 50 mM HEPES buffer solution (pH7.5)) containing 0.55 mg/ml BSA. To 20 μl of this, cPLA2 crudely purified from the cytoplasm fraction of U937 was added in an amount of 10 μl after dilution by an assay buffer solution containing 0.55 mg/ml BSA. A liposome prepared by ultrasonically treating L-α-1-palmitoyl-2-[14C]arachidonyl-phosphatidyl choline (made by PerkinElmer) and adjusted by the assay buffer solution to a concentration of phosphatidyl choline of 10 μM was added and stirred in by an amount of 20 μl and the mixture was reacted at 37° C. for 60 minutes. The [^14C]-arachidonic acid released due to the reaction was extracted based on the method described in the documents [see V. P. Dole et al., J. Biol. Chem. 235, 2595 (1960)], was added to Lumaplate® (made by PerkinElmer), dried, then measured by Topcount® (made by PerkinElmer). Except for not adding the present invention compounds, the same procedure was performed as the above to obtain the enzyme control. Except for not adding the invention compounds and not adding the enzyme, the same procedure was followed as above to obtain a negative control. The inhibiting activity was expressed as a percent (%) of the value minus the negative control with respect to the value of the enzyme control minus the negative control. From this, the 50% inhibiting concentration (IC50, μM) was calculated.

Where [1] appears, read: cPLA2 from U937 cytoplasm fraction, [14C]arachidonyl-phosphatidyl choline liposome, 37° C., 60 minutes, read-out: cPLA2 inhibitory activity, 50% inhibiting concentration IC50.

Structures can show the parent of a compound that is named as a salt. Where two headings read alike, the source gives them in different places.

On to `O=C(O)/C=C/c1ccc2c(c1)c(C(=O)c1ccccc1)cn2-c1ccccc1` [Example 3, (2E)-3-(3-benzoyl-1-phenyl-1H-indol-5-yl)-2-propenoic acid], for which the IC50 is 494 nM.

In turn, `O=C(O)CCc1ccc2c(c1)c(C(=O)c1ccccc1)cn2-c1ccccc1` [Example 4, 3-(3-benzoyl-1-phenyl-1H-indol-5-yl)propanoic acid] yielded an IC50 of 146 nM.

`O=C(O)/C=C/c1ccc2c(c1)c(Cc1ccccc1)cn2-c1ccccc1` [Example 7, (2E)-3-(3-benzyl-1-phenyl-1H-indol-5-yl)-2-propenoic acid]: the IC50 under setting [1] came to 1040 nM.

For the molecule `O=C(O)CCc1ccc2c(c1)c(Cc1ccccc1)cn2-c1ccccc1` [Example 8, 3-(3-benzyl-1-phenyl-1H-indol-5-yl)propanoic acid], the IC50 under setting [1] is 182 nM.

On to `O=C(O)/C=C/c1ccc2c(c1)c(C(=O)Cc1ccccc1)cn2-c1ccccc1` [Example 11, (2E)-3-[1-phenyl-3-(phenylacetyl)-1H-indol-5-yl]-2-propenoic acid], for which the IC50 amounted to 1910 nM.

As for `O=C(O)CCc1ccc2c(c1)c(C(=O)Cc1ccccc1)cn2-c1ccccc1` [Example 12, 3-[1-phenyl-3-(phenylacetyl)-1H-indol-5-yl]propanoic acid], the IC50 is 261 nM.

In the case of `O=C(O)/C=C/c1ccc2c(c1)c(CCc1ccccc1)cn2-c1ccccc1` [Example 15, (2E)-3-[1-phenyl-3-(2-phenylethyl)-1H-indol-5-yl]-2-propenoic acid], the IC50 under setting [1] came to 316 nM.

For `O=C(O)CCc1ccc2c(c1)c(CCc1ccccc1)cn2-c1ccccc1` [Example 16, 3-[1-phenyl-3-(2-phenylethyl)-1H-indol-5-yl]propanoic acid], the IC50 under setting [1] stood at 75 nM.

Consider `N#CNC(=O)CCc1ccc2c(c1)c(CCc1ccccc1)cn2-c1ccccc1` [Example 18, N-cyano-3-[1-phenyl-3-(2-phenylethyl)-1H-indol-5-yl]propanamide], for which the IC50 under setting [1] was 976 nM.

On to `O=C(CCc1ccc2c(c1)c(CCc1ccccc1)cn2-c1ccccc1)Nc1nnn[nH]1` [Example 19, 3-[1-phenyl-3-(2-phenylethyl)-1H-indol-5-yl]-N-tetrazolylpropanamide], for which, under setting [1], the IC50 was found to be 10800 nM.

Turning to `O=C(CCc1ccc2c(c1)c(CCc1ccccc1)cn2-c1ccccc1)NO` [Example 21, N-hydroxy-3-[1-phenyl-3-(2-phenylethyl)-1H-indol-5-yl]propanamide], under setting [1], the IC50 worked out at 15800 nM.

Take `NC(=O)CCc1ccc2c(c1)c(CCc1ccccc1)cn2-c1ccccc1` [Example 22, 3-[1-phenyl-3-(2-phenylethyl)-1H-indol-5-yl]propanamide]: the IC50 under setting [1] is greater than 100000 nM.

In the case of `c1ccc(CCc2cn(-c3ccccc3)c3ccc(CCc4nnn[nH]4)cc23)cc1` [Example 24, 1-phenyl-3-(2-phenylethyl)-5-[2-(1H-tetrazol-5-yl)ethyl]-1H-indole], under setting [1], the IC50 turned out to be 12800 nM.

As to `CC(C(=O)c1cn(-c2ccccc2)c2ccc(/C=C/C(=O)O)cc12)c1ccccc1` (centres unmarked) [Example 26, (2E)-3-[1-phenyl-3-(2-phenylpropanoyl)-1H-indol-5-yl]-2-propenoic acid], under setting [1], the IC50 came to 3400 nM.

Regarding `CC(C(=O)c1cn(-c2ccccc2)c2ccc(CCC(=O)O)cc12)c1ccccc1` (centres unmarked) [Example 27, 3-[1-phenyl-3-(2-phenylpropanoyl)-1H-indol-5-yl]propanoic acid 2-amino-2-(hydroxymethyl)propane-1,3-diol salt (1:1)], the IC50 under setting [1] turned out to be 385 nM.

As for `CC(Cc1cn(-c2ccccc2)c2ccc(CCC(=O)O)cc12)c1ccccc1` (centres unmarked) [Example 28, 3-[1-phenyl-3-(2-phenylpropyl)-1H-indol-5-yl]propanoic acid 2-amino-2-(hydroxymethyl)propane-1,3-diol salt (1:1)], the IC50 under setting [1] was 258 nM.

As to `CC(Cc1cn(-c2ccccc2)c2ccc(CCC(N)=O)cc12)c1ccccc1` (centres unmarked) [Example 29, 3-[1-phenyl-3-(2-phenylpropyl)-1H-indol-5-yl]propanamide], the IC50 under setting [1] came out at 21300 nM.

In the case of `CC(Cc1cn(-c2ccccc2)c2ccc(/C=C/C(=O)O)cc12)c1ccccc1` (centres unmarked) [Example 33, (2E)-3-[1-phenyl-3-(2-phenylpropyl)-1H-indol-5-yl]-2-propenoic acid], the IC50 under setting [1] was found to be 662 nM.

For `CCC(C(=O)c1cn(-c2ccccc2)c2ccc(/C=C/C(=O)O)cc12)c1ccccc1` (centres unmarked) [Example 35, (2E)-3-[1-phenyl-3-(2-phenylbutanoyl)-1H-indol-5-yl]-2-propenoic acid], under setting [1], the IC50 was determined as 5810 nM.

For the molecule `CCC(C(=O)c1cn(-c2ccccc2)c2ccc(CCC(=O)O)cc12)c1ccccc1` (centres unmarked) [Example 36, 3-[1-phenyl-3-(2-phenylbutanoyl)-1H-indol-5-yl]propanoic acid 2-amino-2-(hydroxymethyl)propane-1,3-diol salt (1:1)], under setting [1], the IC50 came to 330 nM.

In the case of `CCC(Cc1cn(-c2ccccc2)c2ccc(CCC(=O)O)cc12)c1ccccc1` (centres unmarked) [Example 37, 3-[1-phenyl-3-(2-phenylbutyl)-1H-indol-5-yl]propanoic acid 2-amino-2-(hydroxymethyl)propane-1,3-diol salt (1:1)], the IC50 under setting [1] stood at 1450 nM.

As for `O=C(O)/C=C/c1ccc2c(c1)c(C(=O)C1(c3ccccc3)CC1)cn2-c1ccccc1` [Example 39, (2E)-3-{1-phenyl-3-[(1-phenylcyclopropyl)carbonyl]-1H-indol-5-yl}-2-propenoic acid], the IC50 under setting [1] stood at 10800 nM.

Regarding `O=C(O)CCc1ccc2c(c1)c(C(=O)C1(c3ccccc3)CC1)cn2-c1ccccc1` [Example 40, 3-{1-phenyl-3-[(1-phenylcyclopropyl)carbonyl]-1H-indol-5-yl}propanoic acid], the IC50 under setting [1] came out at 2300 nM.

As to `O=C(O)CCc1ccc2c(c1)c(CC1(c3ccccc3)CC1)cn2-c1ccccc1` [Example 41, 3-{1-phenyl-3-[(1-phenylcyclopropyl)methyl]-1H-indol-5-yl}propanoic acid 2-amino-2-(hydroxymethyl)propane-1,3-diol salt (1:1)], the IC50 under setting [1] stood at 634 nM.

For `Cc1c(C(=O)Cc2ccccc2)c2cc(/C=C/C(=O)O)ccc2n1-c1ccccc1` [Example 44, (2E)-3-[2-methyl-1-phenyl-3-(phenylacetyl)-1H-indol-5-yl]-2-propenoic acid], the IC50 was determined as 421 nM.

`Cc1c(C(=O)Cc2ccccc2)c2cc(CCC(=O)O)ccc2n1-c1ccccc1` [Example 45, 3-[2-methyl-1-phenyl-3-(phenylacetyl)-1H-indol-5-yl]propanoic acid]: the IC50 amounted to 225 nM.

Molecule `O=C(O)/C=C/c1ccc2c(c1)c(C(=O)c1cccc3ccccc13)cn2-c1ccccc1` [Example 50, (2E)-3-[3-(1-naphthoyl)-1-phenyl-1H-indol-5-yl]-2-propenoic acid] showed an IC50 of 6990 nM.

Consider `O=C(O)CCc1ccc2c(c1)c(Cc1cccc3ccccc13)cn2-c1ccccc1` [Example 51, 3-[3-(1-naphthylmethyl)-1-phenyl-1H-indol-5-yl]propanoic acid], for which the IC50 is 704 nM.

`O=C(O)/C=C/c1ccc2c(c1)c(C(=O)c1ccc3ccccc3c1)cn2-c1ccccc1` [Example 53, (2E)-3-[3-(2-naphthoyl)-1-phenyl-1H-indol-5-yl]-2-propenoic acid] registered an IC50 of 5520 nM.

In the case of `O=C(O)CCc1ccc2c(c1)c(Cc1ccc3ccccc3c1)cn2-c1ccccc1` [Example 54, 3-[3-(2-naphthylmethyl)-1-phenyl-1H-indol-5-yl]propanoic acid], the IC50 under setting [1] stood at 6120 nM.

Take `O=C(O)/C=C/c1ccc2c(c1)c(C(=O)Cc1ccc(Cl)cc1)cn2-c1ccccc1` [Example 56, (2E)-3-{3-[(4-chlorophenyl)acetyl]-1-phenyl-1H-indol-5-yl}-2-propenoic acid]: the IC50 is 6400 nM.

In turn, `O=C(O)CCc1ccc2c(c1)c(C(=O)Cc1ccc(Cl)cc1)cn2-c1ccccc1` [Example 57, 3-{3-[(4-chlorophenyl)acetyl]-1-phenyl-1H-indol-5-yl}propanoic acid] returned an IC50 of 1390 nM.
